pIC50: −log10 of the molar value.

The target of the experiment is [35S]-TBPS binding, rat brain cortical membranes. Description: Steroid inhibition of TBPS binding ([35S]-TBPS radioligand displacement). The note with it: 3 nM [35S]-TBPS, 5 μM GABA. The procedure: TBPS binding assays using rat brain cortical membranes in the presence of 5 μM GABA has been described (Gee et al, J. Pharmacol. Exp. Then 1987, 241, 346-353; Hawkinson et al, Mol. Pharmacol. 1994, 46, 977-985; Lewin, A. H et al., Mol. Pharmacol. 1989, 35, 189-194).
Briefly, cortices are rapidly removed following decapitation of carbon dioxide-anesthetized Sprague-Dawley rats (200-250 g). The cortices are homogenized in 10 volumes of […] using a glass/teflon homogenizer and centrifuged at 1500×g for 10 min at 4° C. The resultant supernatants are centrifuged at 10,000×g for 20 min at 4° C. to obtain the P2 pellets. The P2 pellets are resuspended in 200 mM NaCl/50 mM Na—K phosphate pH 7.4 buffer and centrifuged at 10,000×g for 10 min at 4° C. This washing procedure is repeated twice and the pellets are resuspended in 10 volumes of buffer. Aliquots (100 μL) of the membrane suspensions are incubated with 3 nM [^35S]-TBPS and 5 μL aliquots of test drug dissolved in dimethyl sulfoxide (DMSO) (final 0.5%) in the presence of 5 μM GABA. The incubation is brought to a final volume of 1.0 mL with buffer. […] Following a 90 min incubation at room temp, the assays are terminated by filtration through glass fiber filters (Schleicher and Schuell No. 32) using a cell harvester (Braudel) and rinsed three times with ice-cold buffer. Filter bound radioactivity is measured by liquid scintillation spectrometry. Non-linear curve fitting of the overall data for each drug averaged for each concentration is done using Prism (GraphPad).
Various compounds are or can be screened to determine their potential as modulators of [^35S]-TBPS binding in vitro. These assays are or can be performed in accordance with the above discussed procedures.
As to `CC(C(=O)[C@H]1CC[C@H]2[C@@H]3CC[C@@H]4C[C@](C)(O)CC[C@]4(C)[C@H]3CC[C@]12C)n1nccn1` (stereo in doubt) [Compound 56, (R)-1-((3R,5R,8R,9S,10S,13S,14S,17S)-3-hydroxyl-3,10,13-trimethylhexadecahydro-1H-cyclopenta[a]phenanthren-17-yl)-2-(2H-1,2,3-triazol-2-yl)propan-1-one], the pIC50 (in general, −log10 of the IC50, conventionally taken in molar units) was 7.00 to 7.30.

`CN(C)C(=O)c1cnn(CC(=O)[C@H]2CC[C@H]3[C@@H]4CC[C@@H]5C[C@](C)(O)CC[C@]5(C)[C@H]4CC[C@]23C)c1` [Compound 86] showed a pIC50 above 8.00.

As to `C[C@@]1(O)CC[C@@]2(C)C(CC[C@H]3[C@@H]4CC[C@H](C(=O)Cn5nc6ccc(S(C)(=O)=O)cc6n5)[C@@]4(C)CC[C@@H]32)C1` (stereo in doubt) [Compound 104, 1-((3R,5R,8R,9S,10S,13S,14S,17S)-3-hydroxy-3,10,13-trimethylhexadecahydro-1H-cyclopenta[a]phenanthren-17-yl)-2-(5-(methylsulfonyl)-2H-benzo[d][1,2,3]triazol-2-yl)ethanone], the pIC50 is above 8.00.

In the case of `C[C@H](C(=O)[C@H]1CC[C@H]2[C@@H]3CC[C@H]4C[C@](C)(O)CC[C@]4(C)[C@H]3CC[C@]12C)n1nnc2ccccc21` [Compound 100, (R)-2-(1H-benzo[d][1,2,3]triazol-1-yl)-1-((3R,5S,8R,9S,10S,13S,14S,17S)-3-hydroxy-3,10,13-trimethylhexadecahydro-1H-cyclopenta[a]phenanthren-17-yl)propan-1-one], the pIC50 is below 6.30.

`C[C@@H](C(=O)[C@H]1CC[C@H]2[C@@H]3CC[C@H]4C[C@](C)(O)CC[C@]4(C)[C@H]3CC[C@]12C)n1nc2ccccc2n1` [Compound 99, (S)-2-(2H-benzo[d][1,2,3]triazol-2-yl)-1-((3R,5S,8R,9S,10S,13S,14S,17S)-3-hydroxy-3,10,13-trimethylhexadecahydro-1H-cyclopenta[a]phenanthren-17-yl)propan-1-one] showed a pIC50 of 7.30 to 8.00.

In turn, `C[C@@]1(O)CC[C@@]2(C)[C@@H](CC[C@@H]3[C@@H]2CC[C@]2(C)[C@@H](C(=O)Cn4ncc5ccc(F)cc54)CC[C@@H]32)C1` [Compound 238] showed a pIC50 of 7.00 to 7.30.

`C[C@H](C(=O)[C@H]1CC[C@H]2[C@@H]3CC[C@@H]4C[C@](C)(O)CC[C@]4(C)[C@H]3CC[C@]12C)n1nc2ccccc2n1` [Compound 60, (R)-2-(2H-benzo[d][1,2,3]triazol-2-yl)-1-((3R,5R,8R,9S,10S,13S,14S,17S)-3-hydroxy-3,10,13-trimethylhexadecahydro-1H-cyclopenta[a]phenanthren-17-yl)propan-1-one] gave a pIC50 of 7.30 to 8.00.

Regarding `C[C@@H](C(=O)[C@H]1CC[C@H]2[C@@H]3CC[C@@H]4C[C@](C)(O)CC[C@]4(C)[C@H]3CC[C@]12C)n1nccn1` [Compound 57, (S)-1-((3R,5R,8R,9S,10S,13S,14S,17S)-3-hydroxy-3,10,13-trimethylhexadecahydro-1H-cyclopenta[a]phenanthren-17-yl)-2-(2H-1,2,3-triazol-2-yl)propan-1-one], the pIC50 was 6.30 to 7.00.

Take `C[C@@H](C(=O)[C@H]1CC[C@H]2[C@@H]3CC[C@H]4C[C@](C)(O)CC[C@]4(C)[C@H]3CC[C@]12C)n1ccnn1` [Compound 93, (S)-1-((3R,5S,8R,9S,10S,13S,14S,17S)-3-hydroxy-3,10,13-trimethylhexadecahydro-1H-cyclopenta[a]phenanthren-17-yl)-2-(1H-1,2,3-triazol-1-yl)propan-1-one]: the pIC50 was 6.30 to 7.00.

In turn, `C[C@@]1(O)CC[C@@]2(C)[C@@H](CC[C@@H]3[C@@H]2CC[C@]2(C)[C@@H](C(=O)Cn4nc5ccc(F)cc5n4)CC[C@@H]32)C1` [Compound 245] showed a pIC50 of 7.30 to 8.00.

`C[C@H](C(=O)[C@H]1CC[C@H]2[C@@H]3CC[C@H]4C[C@](C)(O)CC[C@]4(C)[C@H]3CC[C@]12C)n1nccn1` [Compound 90, (R)-1-((3R,5S,8R,9S,10S,13S,14S,17S)-3-hydroxy-3,10,13-trimethylhexadecahydro-1H-cyclopenta[a]phenanthren-17-yl)-2-(2H-1,2,3-triazol-2-yl)propan-1-one]: the pIC50 is below 6.30.

As to `C[C@H](C(=O)[C@H]1CC[C@H]2[C@@H]3CC[C@H]4C[C@](C)(O)CC[C@]4(C)[C@H]3CC[C@]12C)n1cc(C#N)cn1` [Compound 80, 1-((R)-1-((3R,5S,8R,9S,10S,13S,14S,17S)-3-hydroxy-3,10,13-trimethylhexadecahydro-1H-cyclopenta[a]phenanthren-17-yl)-1-oxopropan-2-yl)-1H-pyrazole-4-carbonitrile], the pIC50 was 6.30 to 7.00.

In turn, `C[C@@]1(O)CC[C@@]2(C)[C@@H](CC[C@@H]3[C@@H]2CC[C@]2(C)[C@@H](C(=O)Cn4cc5ccc(F)cc5n4)CC[C@@H]32)C1` [Compound 237] showed a pIC50 of 7.30 to 8.00.

In the case of `CC(C(=O)[C@H]1CC[C@H]2[C@@H]3CC[C@@H]4C[C@](C)(O)CC[C@]4(C)[C@H]3CC[C@]12C)n1ccnn1` (stereo in doubt) [Compound 58, (R)-1-((3R,5R,8R,9S,10S,13S,14S,17S)-3-hydroxy-3,10,13-trimethylhexadecahydro-1H-cyclopenta[a]phenanthren-17-yl)-2-(1H-1,2,3-triazol-1-yl)propan-1-one], the pIC50 was below 6.30.

As to `C[C@@H](C(=O)[C@H]1CC[C@H]2[C@@H]3CC[C@H]4C[C@](C)(O)CC[C@]4(C)[C@H]3CC[C@]12C)n1nccn1` [Compound 91, (S)-1-((3R,5S,8R,9S,10S,13S,14S,17S)-3-hydroxy-3,10,13-trimethylhexadecahydro-1H-cyclopenta[a]phenanthren-17-yl)-2-(2H-1,2,3-triazol-2-yl)propan-1-one], the pIC50 is 7.00 to 7.30.

The molecule `C[C@@]1(O)CC[C@@]2(C)[C@@H](CC[C@@H]3[C@@H]2CC[C@]2(C)[C@@H](C(=O)Cn4nc5ccc(F)cc5n4)CC[C@@H]32)C1` [Compound 246] showed a pIC50 above 8.00.

`CC(C(=O)[C@H]1CC[C@H]2[C@@H]3CC[C@@H]4C[C@](C)(O)CC[C@]4(C)[C@H]3CC[C@]12C)n1nnc2ccccc21` (stereo in doubt) [Compound 63, (S)-2-(1H-benzo[d][1,2,3]triazol-1-yl)-1-((3R,5R,8R,9S,10S,13S,14S,17S)-3-hydroxy-3,10,13-trimethylhexadecahydro-1H-cyclopenta[a]phenanthren-17-yl)propan-1-one] gave a pIC50 of 7.30 to 8.00.

Molecule `C[C@@H](C(=O)[C@H]1CC[C@H]2[C@@H]3CC[C@H]4C[C@](C)(O)CC[C@]4(C)[C@H]3CC[C@]12C)n1nnc2ccccc21` [Compound 101, (S)-2-(1H-benzo[d][1,2,3]triazol-1-yl)-1-((3R,5S,8R,9S,10S,13S,14S,17S)-3-hydroxy-3,10,13-trimethylhexadecahydro-1H-cyclopenta[a]phenanthren-17-yl)propan-1-one] gave a pIC50 of 7.00 to 7.30.

Regarding `C[C@@]1(O)CC[C@@]2(C)[C@H](CC[C@@H]3[C@@H]2CC[C@]2(C)[C@@H](C(=O)Cn4cc(C#N)cn4)CC[C@@H]32)C1` [Compound 10, 1-(2-((3R,5R,8R,9S,10S,13S,14S,17S)-3-hydroxy-3,10,13-trimethylhexadecahydro-1H-cyclopenta[a]phenanthren-17-yl)-2-oxoethyl)-1H-pyrazole-4-carbonitrile], the pIC50 was above 8.00.

Values taken from patent publication US11530237B2, “Compositions and methods for treating CNS disorders” (Sage Therapeutics, Inc., priority 2014, dated 2022).
